Our source for the Cleavage values is ChEMBL document CHEMBL1150527, “Bifunctional antitumor agents: a DNA interactive enediyne from the pyrrolo[9,10-b]phenanthrene template” (Bioorg Med Chem Lett, 1997).

Common to all, as to format: nucleic-acid assay
Assay [1] relates to Nucleic Acid. Kind of assay: DNA cleavage activity using supercoiled bacteriophage (piX174Rf II) DNA at 10e-3 M concentration (5% control).
Assay [2] relates to Nucleic Acid. Kind of assay: DNA cleavage activity using supercoiled bacteriophage (piX174Rf III) DNA at 10e-4 M concentration (0% control).
Assay [3] relates to Nucleic Acid. Kind of assay: DNA cleavage activity using supercoiled bacteriophage (piX174Rf I) DNA at 10e-3 M concentration (95% control).
Assay [4] concerns Nucleic Acid. Nature of the assay: DNA cleavage activity using supercoiled bacteriophage (piX174Rf II) DNA at 10e-5 M concentration (5% control).
For assay [5], the system named is Nucleic Acid. Nature of the assay: DNA cleavage activity using supercoiled bacteriophage (piX174Rf III) DNA at 10e-3 M concentration (0% control).
In assay [6] the test system is Nucleic Acid. Kind of assay: DNA cleavage activity using supercoiled bacteriophage (piX174Rf I) DNA at 10e-4 M concentration (95% control).
The test system of assay [7] is Nucleic Acid. Kind of assay: DNA cleavage activity using supercoiled bacteriophage (piX174Rf III) DNA at 10e-5 M concentration (0% control).
The test system of assay [8] is Nucleic Acid. Nature of the assay: DNA cleavage activity using supercoiled bacteriophage (piX174Rf I) DNA at 10e-5 M concentration (95% control).
The test system of assay [9] is Nucleic Acid. Nature of the assay: DNA cleavage activity using supercoiled bacteriophage (piX174Rf II) DNA at 10e-4 M concentration (5% control).

For the compound `O=C(OCC1CC#C/C=C\C#CCC1)c1ccccc1` (stereo not drawn), the Cleavage in assay [1] was determined as 82%; in assay [2] it was 0%; in assay [3], 15%; in assay [4], 7%; in [5], 3%; in assay [6] it was 78%. In addition, the values for the Cleavage in [7], in assay [8] and in assay [9] were 0%, 93% and 22%, respectively.

For the compound `O=C(OCC1CC#C/C=C\C#CCC1)c1cc2c3ccccc3c3ccccc3c2[nH]1` (stereo not drawn), the Cleavage was determined as 88% in assay [1]; 0% in [2]; 7% in [3]; 21% in [4]; 5% in [5]; 45% in assay [6]. Further, the Cleavage was found to be 0% in [7], 79% in [8] and 55% in [9].
